These results are taken from patent US12643887B2, “Heterocyclic derivatives with cardiomyocyte proliferation activity for treatment of heart diseases” (Tongji University, priority 2019, dated 2026).

Structures are written as SMILES.

One test has as its target T1, human HIPK1 (Homo sapiens, UniProt Q86Z02).
T1 construct: Recombinant human HIPK1 (156-555); GST (N); purchased SignalChem H03-11G; host or cells: Sf9 insect cells
As to the kind of experiment: HIPK1 enzyme assay (ADP-Glo). The settings on record: ADP-Glo, ATP 5 μM; read-out: HIPK1 IC50. Format: biochemical. As to the method: The ability of compounds to inhibit human HIPK1 kinase activities was determined using a commercially available ADP-Glo™ Kinase Assay kit (Promega, Cat #V9102) according to the manufacturer's protocol.
Recombinant human HIPK1 (156-555) (expressed in Sf9 insect cells with an N-terminal GST tag) was purchased from SignalChem (Cat #H03-11G). Recombinant full length human MBP (expressed in E. Coli cells with an N-terminal GST tag) was purchased from SignalChem (Cat #M42-54G). This assay, run in a 384-well plate format, is a generic method for measuring kinase activities using an ADP-Glo Kinase Assay Kit. The basic assay procedure involves two steps: (1) Enzymatic step: inhibitors are incubated with the kinase and then ATP (included in the ADP-Glo Kinase Assay Kit) and the MBP protein are added to start the enzymatic reaction; (2) Detection step: after the kinase reaction, first ADP-Glo™ Reagent is added to terminate the kinase reaction and deplete the remaining ATP. Second, the Kinase Detection Reagent is added to simultaneously convert ADP to ATP and allow the newly synthesized ATP to be measured using a luciferase/luciferin reaction. The light generated is measured using a luminometer.
Briefly, HIPK1 (4 nM) in the enzymatic buffer solutions (40 mM Tris, pH 7.5, 20 mM MgCl2, 0.1 mg/ml BSA, 50 μM DTT) were mixed with various concentrations of inhibitors (dissolved in 100% DMSO). These solutions were incubated for 30 minutes at 25° C., and subsequently a mixture of substrate peptide and ATP was added with the final peptide and ATP concentrations at 0.05 mg/ml and 5 μM, respectively. The final reaction mixture of enzyme-substrate-ATP-compound was incubated for 90 minutes at 25° C.
(§1) Afterwards ADP-Glo™ Reagent was added and the mixture was incubated at 25° C. for 60 minutes. Then Kinase Detection Reagent was added, and the final mixture was incubated at 25° C. for 60 minutes. The luminescence signal of the final solution was measured on an Envision instrument (PerkinElmer). The percent (%) inhibition at each concentration of a compound is calculated relative to the luminescence signal in the Max and Min control wells contained within each assay plate. […] The concentrations and percent inhibition values for a test compound are plotted and the concentration of the compound required to achieve 50% inhibition (IC50) is determined with a four-parameter logistic dose response equation.
(In general: ADP-Glo turns the ADP formed in a reaction into a luminescent signal.)

For another test, the target named is T2, human CLK1 (Homo sapiens, UniProt P49759).
T2 construct: Recombinant human CLK1 (129-end); GST (N); purchased SignalChem C57-11G; host or cells: Sf9 insect cells
T2 sequence (P49759 129-484 limits assumed): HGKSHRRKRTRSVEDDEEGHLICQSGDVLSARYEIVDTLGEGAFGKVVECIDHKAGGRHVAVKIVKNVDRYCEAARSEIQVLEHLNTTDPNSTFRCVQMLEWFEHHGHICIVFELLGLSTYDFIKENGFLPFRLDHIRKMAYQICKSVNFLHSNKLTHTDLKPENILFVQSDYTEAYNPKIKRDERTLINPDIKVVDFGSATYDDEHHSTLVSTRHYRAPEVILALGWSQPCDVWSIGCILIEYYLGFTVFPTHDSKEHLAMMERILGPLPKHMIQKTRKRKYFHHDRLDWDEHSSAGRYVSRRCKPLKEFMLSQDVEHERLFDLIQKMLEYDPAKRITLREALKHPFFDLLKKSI
Put plainly: CLK1 enzyme assay (ADP-Glo). Type of test: biochemical. Particulars: ADP-Glo, ATP 10 μM; read-out: CLK1 IC50. The method, then:
The ability of compounds to inhibit human CLK1 kinase activities was determined using a commercially available ADP-Glo™ Kinase Assay kit (Promega, Cat #V9102) according to the manufacturer's protocol.
Recombinant human CLK1 (129-end) (expressed in Sf9 insect cells with an N-terminal GST tag) was purchased from SignalChem (Cat #C57-11G). Recombinant full length human MBP (expressed in E. Coli cells with an N-terminal GST tag.) was purchased from SignalChem (Cat #M42-54G). This assay, run in a 384-well plate format, is a generic method for measuring kinase activities using an ADP-Glo Kinase Assay Kit. The basic assay procedure involves two steps: (1) Enzymatic step: inhibitors are incubated with the kinase and then ATP (included in the ADP-Glo Kinase Assay Kit) and the MBP protein are added to start the enzymatic reaction; (2) Detection step: after the kinase reaction, first ADP-Glo™ Reagent is added to terminate the kinase reaction and deplete the remaining ATP. Second, the Kinase Detection Reagent is added to simultaneously convert ADP to ATP and allow the newly synthesized ATP to be measured using a luciferase/luciferin reaction. The light generated is measured using a luminometer.
Briefly, CLK1 (16 nM) in the enzymatic buffer solutions (40 mM Tris, pH 7.5, 20 mM MgCl2, 0.1 mg/ml BSA, 50 μM DTT) were mixed with various concentrations of inhibitors (dissolved in 100% DMSO). These solutions were incubated for 30 minutes at 25° C., and subsequently a mixture of substrate peptide and ATP was added with the final peptide and ATP concentrations at 2 μM and 10 μM, respectively. The final reaction mixture of enzyme-substrate-ATP-compound was incubated for 60 minutes at 25° C.
as §1, with “added” for “added,”

T1 sequence (Q86Z02 156-555): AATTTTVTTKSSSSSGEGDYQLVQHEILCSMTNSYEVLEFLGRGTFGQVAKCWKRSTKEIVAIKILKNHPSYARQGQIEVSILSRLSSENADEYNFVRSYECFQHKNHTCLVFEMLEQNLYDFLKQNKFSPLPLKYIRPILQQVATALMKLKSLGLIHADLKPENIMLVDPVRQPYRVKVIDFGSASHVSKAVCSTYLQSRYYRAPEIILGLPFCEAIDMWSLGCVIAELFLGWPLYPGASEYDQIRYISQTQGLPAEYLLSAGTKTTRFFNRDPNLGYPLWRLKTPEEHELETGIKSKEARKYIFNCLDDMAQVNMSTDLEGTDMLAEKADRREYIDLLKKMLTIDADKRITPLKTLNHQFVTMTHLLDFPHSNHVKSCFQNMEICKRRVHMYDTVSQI

Usually IC50 stands for the concentration that gives 50% inhibition. `Cn1cnc2ccc(/C=C3\N=C(Nc4ccccc4)NC3=O)cc21` [Example 46, (Z)-5-((1-methyl-1H-benzo[d]imidazol-6-yl)methylene)-2-(phenylamino)-3,5-dihydro-4H-imidazol-4-one]: the values for the IC50 at human HIPK1 and at human CLK1 were 0.1 to 1 µM and under 0.1 µM, respectively.

`O=C1NC(Nc2ccc3ncsc3c2)=N/C1=C\c1ccc2c(c1)OCO2` [Example 47, (Z)-5-(benzo[d][1,3]dioxol-5-ylmethylene)-2-(benzo[d]thiazol-6-ylamino)-3,5-dihydro-4H-imidazol-4-one]: the concentration for half-maximal inhibition (IC50) on human HIPK1 and on human CLK1 was over 10 µM throughout.

Regarding `O=C1NC(Nc2ccc3ncsc3c2)=N/C1=C\c1ccc2ncsc2c1` [Example 48, (Z)-2-(benzo[d]thiazol-6-ylamino)-5-(benzo[d]thiazol-6-ylmethylene)-3,5-dihydro-4H-imidazol-4-one], the IC50 at human HIPK1 was 0.1 to 1 µM; at human CLK1 it was under 0.1 µM.

With `CC(C)NC1=N/C(=C\c2ccc3scnc3c2)C(=O)N1` [Example 49, (Z)-5-(benzo[d]thiazol-5-ylmethylene)-2-(isopropylamino)-3,5-dihydro-4H-imidazol-4-one], the 50% inhibitory concentration (IC50) at human HIPK1 and on human CLK1 was over 10 µM each time.

Take `O=C1NC(NC23CC4CC(CC(C4)C2)C3)=N/C1=C\c1ccc2scnc2c1` [Example 50, (Z)-2-(adamantan-1-ylamino)-5-(benzo[d]thiazol-5-ylmethylene)-3,5-dihydro-4H-imidazol-4-one]: the 50% inhibitory concentration (IC50) at human HIPK1 and on human CLK1 was over 10 µM in each case.

`O=C1NC(Nc2ccccc2)=N/C1=C\c1ccc2[nH]ccc2c1` [Example 51, (Z)-5-((1H-indol-5-yl)methylene)-2-(phenylamino)-3,5-dihydro-4H-imidazol-4-one]: the IC50 at human HIPK1 and on human CLK1 was over 10 µM each time.

In the case of `O=C1NC(Nc2ccccc2)=N/C1=C\c1ccc2occc2c1` [Example 52, (Z)-5-(benzofuran-5-ylmethylene)-2-(phenylamino)-3,5-dihydro-4H-imidazol-4-one], the values for the IC50 on human HIPK1 and at human CLK1 were over 10 µM and 0.1 to 1 µM, respectively.

On to `O=C1NC(Nc2ccccc2)=N/C1=C\c1ccc2ncccc2c1` [Example 53, (Z)-2-(phenylamino)-5-(quinolin-6-ylmethylene)-3,5-dihydro-4H-imidazol-4-one], for which the IC50 at human HIPK1 was over 10 µM; on human CLK1, under 0.1 µM.

Regarding `O=C1NC(Nc2ccccc2)=N/C1=C\c1ccc2cn[nH]c2c1` [Example 54, (Z)-5-((1H-indazol-6-yl)methylene)-2-(phenylamino)-3,5-dihydro-4H-imidazol-4-one], the half-maximal inhibitory concentration (IC50) at human HIPK1 and at human CLK1 was over 10 µM throughout.

`O=C1NC(Nc2ccccc2)=N/C1=C\c1ccc2[nH]ncc2c1` [Example 55, (Z)-5-((1H-indazol-5-yl)methylene)-2-(phenylamino)-3,5-dihydro-4H-imidazol-4-one]: the concentration for half-maximal inhibition (IC50) on human HIPK1 was over 10 µM; on human CLK1, under 0.1 µM.

With `O=C1NC(Nc2ccccc2)=N/C1=C\c1ccc2nn[nH]c2c1` [Example 56, (Z)-5-((1H-benzo[d][1,2,3]triazol-6-yl)methylene)-2-(phenylamino)-3,5-dihydro-4H-imidazol-4-one], the 50% inhibitory concentration (IC50) at human HIPK1 was over 10 µM; at human CLK1, under 0.1 µM.

As for `O=C1NC(Nc2ccc3ncsc3c2)=N/C1=C\c1ccc2scnc2c1` [Example 57, (Z)-5-(benzo[d]thiazol-5-ylmethylene)-2-(benzo[d]thiazol-6-ylamino)-3,5-dihydro-4H-imidazol-4-one], the concentration for half-maximal inhibition (IC50) at human HIPK1 and at human CLK1 was under 0.1 µM in each case.

For `O=C1NC(Nc2ccc3ncsc3c2)=N/C1=C\c1ccc2[nH]ccc2c1` [Example 58, (Z)-5-((1H-indol-5-yl)methylene)-2-(benzo[d]thiazol-6-ylamino)-3,5-dihydro-4H-imidazol-4-one], the IC50 at human HIPK1 and on human CLK1 was over 10 µM in each case.

For `O=C1NC(Nc2ccc3ncsc3c2)=N/C1=C\c1ccc2occc2c1` [Example 59, (Z)-2-(benzo[d]thiazol-6-ylamino)-5-(benzofuran-5-ylmethylene)-3,5-dihydro-4H-imidazol-4-one], the 50% inhibitory concentration (IC50) at human HIPK1 and on human CLK1 was over 10 µM each time.

Consider `O=C1NC(Nc2ccc3ncsc3c2)=N/C1=C\c1ccc2cccnc2c1` [Example 60, (Z)-2-(benzo[d]thiazol-6-ylamino)-5-(quinolin-7-ylmethylene)-3,5-dihydro-4H-imidazol-4-one], for which the IC50 at human HIPK1 and on human CLK1 was over 10 µM each time.

On to `Cn1cnc2cc(NC3=N/C(=C\c4ccc5ncsc5c4)C(=O)N3)ccc21` [Example 61, (Z)-5-(benzo[d]thiazol-6-ylmethylene)-2-((1-methyl-1H-benzo[d]imidazol-5-yl)amino)-3,5-dihydro-4H-imidazol-4-one], for which the IC50 on human HIPK1 and at human CLK1 was 0.1 to 1 µM in each case.

As for `O=C1NC(Nc2ccc3ncsc3c2)=N/C1=C\c1ccc2cc[nH]c2c1` [Example 63, (Z)-5-((1H-indol-6-yl)methylene)-2-(benzo[d]thiazol-6-ylamino)-3,5-dihydro-4H-imidazol-4-one], the IC50 on human HIPK1 and at human CLK1 was over 10 µM each time.

As to `O=C1NC(Nc2ccc3[nH]ccc3c2)=N/C1=C\c1ccc2ncsc2c1` [Example 69, (Z)-2-((1H-indol-5-yl)amino)-5-(benzo[d]thiazol-6-ylmethylene)-3,5-dihydro-4H-imidazol-4-one], the concentration for half-maximal inhibition (IC50) on human HIPK1 is 0.1 to 1 µM; at human CLK1, under 0.1 µM.

Turning to `CN(C1=N/C(=C\c2ccc3c(c2)OCO3)C(=O)N1)c1ccc2ncsc2c1` [Example 70, (Z)-5-(benzo[d][1,3]dioxol-5-ylmethylene)-2-(benzo[d]thiazol-6-yl(methyl)amino)-3,5-dihydro-4H-imidazol-4-one], the figures for the concentration for half-maximal inhibition (IC50) at human HIPK1 and on human CLK1 were over 10 µM and under 0.1 µM, respectively.

As for `Cn1cnc2cc(/C=C3\N=C(Nc4ccccc4)NC3=O)ccc21` [Example 71, (Z)-5-((1-methyl-1H-benzo[d]imidazol-5-yl)methylene)-2-(phenylamino)-3,5-dihydro-4H-imidazol-4-one], the IC50 at human HIPK1 and on human CLK1 was over 10 µM each time.

For the compound `O=C1NC(Nc2ccccc2)=N/C1=C\c1ccc2sccc2c1` [Example 72, (Z)-5-(benzo[b]thiophen-5-ylmethylene)-2-(phenylamino)-3,5-dihydro-4H-imidazol-4-one], the IC50 at human HIPK1 and at human CLK1 was over 10 µM throughout.

On to `O=C1NC(Nc2ccccc2)=N/C1=C\c1ccc2cc[nH]c2c1` [Example 73, (Z)-5-((1H-indol-6-yl)methylene)-2-(phenylamino)-3,5-dihydro-4H-imidazol-4-one], for which the IC50 on human HIPK1 and on human CLK1 was over 10 µM in each case.
